Source: patent publication US9005575B2, “Arg-Gly-Asp-conjugated alpha-melanocyte stimulating hormone hybrid peptide for use in diagnosing and treating melanoma, including metastatic melanoma and methods related to same” (STC.UNM, priority 2009, dated 2015)
Where two headings read alike, the source gives them in different places. Positions of bridges follow the written chain, without caps; N, C: chain ends. Non-standard residues stand in square brackets, D forms with d. Residues, ends and D or L forms follow the SMILES beside them.

Assay: Biodistribution in B16/F1 melanoma-bearing C57 mice
Format: in vivo
Settings: female, C57, mouse, iv, total radioactivity
Method: All the animal studies were conducted in compliance with Institutional Animal Care and Use Committee approval. The pharmacokinetics of ^99mTc-RGD-Lys-(Arg^11)CCMSH was determined in B16/F1 melanoma-bearing C57 female mice (Harlan, Indianapolis, Ind.). C57 mice were subcutaneously inoculated on the right flank with 1×10^6 B16/F1 cells. The weight of tumors reached approximately 0.2 g 10 days post cell inoculation. Each melanoma-bearing mouse was injected with 0.037 MBq of ^99mTc-RGD-Lys-(Arg^11)CCMSH via the tail vein. Groups of 5 mice were sacrificed at 0.5, 2, 4 and 24 h post-injection, and tumors and organs of interest were harvested, weighed and counted. Blood values were taken as 6.5% of the whole-body weight. The MC1 receptor specificity of the tumor uptake was determined at 2 h post-injection by co-injecting ^99mTc-RGD-Lys-(Arg^11)CCMSH with 10 μg (6.1 nmol) of unlabeled NDP-MSH, a linear α-MSH peptide analogue with picomolar affinity for the MC1 receptors present on murine melanoma cells. The co-injection of 3.5 μg (6.1 nmol) of RGD peptide was performed to determine the αvβ3 integrin specificity of the tumor uptake 2 h post-injection. Statistical analysis was performed using the Student's t-test for unpaired data.
All the animal studies were conducted in compliance with Institutional Animal Care and Use Committee approval. The pharmacokinetics of ^99mTc-RGD-Arg-(Arg^11)CCMSH was determined in B16/F1 melanoma-bearing C57 female mice (Harlan, Indianapolis, Ind.). C57 mice were subcutaneously inoculated on the right flank with 1×10^6 B16/F1 cells. The weight of tumors reached approximately 0.2 g 10 days post cell inoculation. Each melanoma-bearing mouse was injected with 0.037 MBq of ^99mTc-RGD-Arg-(Arg^11)CCMSH via the tail vein. Groups of 5 mice were sacrificed at 0.5, 2, 4 and 24 h post-injection, and tumors and organs of interest were harvested, weighed and counted. Blood values were taken as 6.5% of the whole-body weight. The MC1 receptor specificity of the tumor uptake was determined at 2 h post-injection by co-injecting ^99mTc-RGD-Arg-(Arg^11)CCMSH with 10 μg (6.1 nmol) of unlabeled NDP-MSH. The co-injection of 3.5 μg (6.1 nmol) of RGD peptide was performed to determine the αvβ3 integrin specificity of the tumor uptake at 2 h post-injection.

tissue uptake at 2 h (skin, 0.037 MBq, 2 h post-injection, read-out: Skin, Percentage Injected Dose/gram): 1.29 ± 0.32 %ID/g | tissue uptake at 4 h (skin, 0.037 MBq, 4 h post-injection, read-out: Skin, Percentage Injected Dose/gram): 0.82 ± 0.22 %ID/g | tissue uptake at 24 h (skin, 0.037 MBq, 24 h post-injection, read-out: Skin, Percentage Injected Dose/gram): 0.75 ± 0.13 %ID/g | tissue uptake at 2 h (skin, 2 h post-injection, NDP blockade (10 μg NDP-MSH co-injected), read-out: Skin, Percentage Injected Dose/gram): 1.26 ± 0.14 %ID/g | tissue uptake at 2 h (skin, 2 h post-injection, RGD blockade (3.5 μg RGD co-injected), read-out: Skin, Percentage Injected Dose/gram): 0.95 ± 0.38 %ID/g | tissue uptake at 0.5 h (spleen, 0.037 MBq, 0.5 h post-injection, read-out: Spleen, Percentage Injected Dose/gram): 2.73 ± 0.8 %ID/g | tissue uptake at 2 h (spleen, 0.037 MBq, 2 h post-injection, read-out: Spleen, Percentage Injected Dose/gram): 1.17 ± 0.57 %ID/g | tissue uptake at 4 h (spleen, 0.037 MBq, 4 h post-injection, read-out: Spleen, Percentage Injected Dose/gram): 1.75 ± 0.55 %ID/g | tissue uptake at 24 h (spleen, 0.037 MBq, 24 h post-injection, read-out: Spleen, Percentage Injected Dose/gram): 1.45 ± 0.37 %ID/g | tissue uptake at 2 h (spleen, 2 h post-injection, NDP blockade (10 μg NDP-MSH co-injected), read-out: Spleen, Percentage Injected Dose/gram): 1.53 ± 0.12 %ID/g | tissue uptake at 2 h (spleen, 2 h post-injection, RGD blockade (3.5 μg RGD co-injected), read-out: Spleen, Percentage Injected Dose/gram): 0.67 ± 0.38 %ID/g | tissue uptake at 0.5 h (stomach, 0.037 MBq, 0.5 h post-injection, read-out: Stomach, Percentage Injected Dose/gram): 4.3 ± 1.78 %ID/g | tissue uptake at 2 h (stomach, 0.037 MBq, 2 h post-injection, read-out: Stomach, Percentage Injected Dose/gram): 2.75 ± 1.71 %ID/g | tissue uptake at 4 h (stomach, 0.037 MBq, 4 h post-injection, read-out: Stomach, Percentage Injected Dose/gram): 3.44 ± 0.83 %ID/g | tissue uptake at 24 h (stomach, 0.037 MBq, 24 h post-injection, read-out: Stomach, Percentage Injected Dose/gram): 0.47 ± 0.17 %ID/g | tissue uptake at 2 h (stomach, 2 h post-injection, NDP blockade (10 μg NDP-MSH co-injected), read-out: Stomach, Percentage Injected Dose/gram): 2.4 ± 0.49 %ID/g | tissue uptake at 2 h (stomach, 2 h post-injection, RGD blockade (3.5 μg RGD co-injected), read-out: Stomach, Percentage Injected Dose/gram): 2.03 ± 1.39 %ID/g | Fold change in tumor/kidney uptake ratio versus ^99mTc-RGD-Lys-(Arg^11)CCMSH at 0.5 h (tumor and kidneys, 0.037 MBq, 0.5 h post-injection, read-out: Tumor/kidney uptake ratio, times that of ^99mTc-RGD-Lys-(Arg^11)CCMSH): 2.38 | Fold change in tumor/kidney uptake ratio versus ^99mTc-RGD-Lys-(Arg^11)CCMSH at 2 h (tumor and kidneys, 0.037 MBq, 2 h post-injection, read-out: Tumor/kidney uptake ratio, times that of ^99mTc-RGD-Lys-(Arg^11)CCMSH): 2.27 | Fold change in tumor/kidney uptake ratio versus ^99mTc-RGD-Lys-(Arg^11)CCMSH at 4 h (tumor and kidneys, 0.037 MBq, 4 h post-injection, read-out: Tumor/kidney uptake ratio, times that of ^99mTc-RGD-Lys-(Arg^11)CCMSH): 2.44 | tissue uptake at 0.5 h (tumor, 0.037 MBq, 0.5 h post-injection, read-out: Tumor, Percentage Injected Dose/gram): 14.1 ± 2.42 %ID/g | tissue uptake at 2 h (tumor, 0.037 MBq, 2 h post-injection, read-out: Tumor, Percentage Injected Dose/gram): 21.4 ± 3.74 %ID/g | tissue uptake at 4 h (tumor, 0.037 MBq, 4 h post-injection, read-out: Tumor, Percentage Injected Dose/gram): 16.1 ± 2 %ID/g | tissue uptake at 24 h (tumor, 0.037 MBq, 24 h post-injection, read-out: Tumor, Percentage Injected Dose/gram): 6.81 ± 3.71 %ID/g | tissue uptake at 2 h (tumor, 2 h post-injection, NDP blockade (10 μg NDP-MSH co-injected), read-out: Tumor, Percentage Injected Dose/gram): 1.96 ± 0.71 %ID/g | tissue uptake at 2 h (tumor, 2 h post-injection, RGD blockade (3.5 μg RGD co-injected), read-out: Tumor, Percentage Injected Dose/gram): 16.9 ± 2.69 %ID/g | tissue to tissue ratio at 0.5 h (tumor/blood, 0.037 MBq, 0.5 h post-injection, read-out: Uptake Ratio Tumor/Blood): 3.87 | tissue to tissue ratio at 2 h (tumor/blood, 0.037 MBq, 2 h post-injection, read-out: Uptake Ratio Tumor/Blood): 38.9 | tissue to tissue ratio at 4 h (tumor/blood, 0.037 MBq, 4 h post-injection, read-out: Uptake Ratio Tumor/Blood): 22.6 | tissue to tissue ratio at 24 h (tumor/blood, 0.037 MBq, 24 h post-injection, read-out: Uptake Ratio Tumor/Blood): 28.4 | tissue to tissue ratio at 2 h (tumor/blood, 2 h post-injection, NDP blockade (10 μg NDP-MSH co-injected), read-out: Uptake Ratio Tumor/Blood): 4.17 | tissue to tissue ratio at 2 h (tumor/blood, 2 h post-injection, RGD blockade (3.5 μg RGD co-injected), read-out: Uptake Ratio Tumor/Blood): 422 | tissue to tissue ratio at 0.5 h (tumor/kidneys, 0.037 MBq, 0.5 h post-injection, read-out: Uptake Ratio Tumor/Kidneys): 0.38 | tissue to tissue ratio at 2 h (tumor/kidneys, 0.037 MBq, 2 h post-injection, read-out: Uptake Ratio Tumor/Kidneys): 0.5 | tissue to tissue ratio at 4 h (tumor/kidneys, 0.037 MBq, 4 h post-injection, read-out: Uptake Ratio Tumor/Kidneys): 0.44 | tissue to tissue ratio at 24 h (tumor/kidneys, 0.037 MBq, 24 h post-injection, read-out: Uptake Ratio Tumor/Kidneys): 0.42 | tissue to tissue ratio at 2 h (tumor/kidneys, 2 h post-injection, NDP blockade (10 μg NDP-MSH co-injected), read-out: Uptake Ratio Tumor/Kidneys): 0.06 | tissue to tissue ratio at 2 h (tumor/kidneys, 2 h post-injection, RGD blockade (3.5 μg RGD co-injected), read-out: Uptake Ratio Tumor/Kidneys): 0.44 | tissue to tissue ratio at 0.5 h (tumor/liver, 0.037 MBq, 0.5 h post-injection, read-out: Uptake Ratio Tumor/Liver): 3.35 | tissue to tissue ratio at 2 h (tumor/liver, 0.037 MBq, 2 h post-injection, read-out: Uptake Ratio Tumor/Liver): 5.98 | tissue to tissue ratio at 4 h (tumor/liver, 0.037 MBq, 4 h post-injection, read-out: Uptake Ratio Tumor/Liver): 3.26 | tissue to tissue ratio at 24 h (tumor/liver, 0.037 MBq, 24 h post-injection, read-out: Uptake Ratio Tumor/Liver): 3.6 | tissue to tissue ratio at 2 h (tumor/liver, 2 h post-injection, NDP blockade (10 μg NDP-MSH co-injected), read-out: Uptake Ratio Tumor/Liver): 0.68 | tissue to tissue ratio at 2 h (tumor/liver, 2 h post-injection, RGD blockade (3.5 μg RGD co-injected), read-out: Uptake Ratio Tumor/Liver): 7.34 | tissue to tissue ratio at 0.5 h (tumor/lung, 0.037 MBq, 0.5 h post-injection, read-out: Uptake Ratio Tumor/Lung): 1.87 | tissue to tissue ratio at 2 h (tumor/lung, 0.037 MBq, 2 h post-injection, read-out: Uptake Ratio Tumor/Lung): 10.4 | tissue to tissue ratio at 4 h (tumor/lung, 0.037 MBq, 4 h post-injection, read-out: Uptake Ratio Tumor/Lung): 15.9 | tissue to tissue ratio at 24 h (tumor/lung, 0.037 MBq, 24 h post-injection, read-out: Uptake Ratio Tumor/Lung): 8.96 | tissue to tissue ratio at 2 h (tumor/lung, 2 h post-injection, NDP blockade (10 μg NDP-MSH co-injected), read-out: Uptake Ratio Tumor/Lung): 1.38 | tissue to tissue ratio at 2 h (tumor/lung, 2 h post-injection, RGD blockade (3.5 μg RGD co-injected), read-out: Uptake Ratio Tumor/Lung): 13.9 | tissue to tissue ratio at 0.5 h (tumor/muscle, 0.037 MBq, 0.5 h post-injection, read-out: Uptake Ratio Tumor/Muscle): 7.87 | tissue to tissue ratio at 2 h (tumor/muscle, 0.037 MBq, 2 h post-injection, read-out: Uptake Ratio Tumor/Muscle): 102 | tissue to tissue ratio at 4 h (tumor/muscle, 0.037 MBq, 4 h post-injection, read-out: Uptake Ratio Tumor/Muscle): 50.2 | tissue to tissue ratio at 24 h (tumor/muscle, 0.037 MBq, 24 h post-injection, read-out: Uptake Ratio Tumor/Muscle): 27.2 | tissue to tissue ratio at 2 h (tumor/muscle, 2 h post-injection, NDP blockade (10 μg NDP-MSH co-injected), read-out: Uptake Ratio Tumor/Muscle): 3.92 | tissue to tissue ratio at 2 h (tumor/muscle, 2 h post-injection, RGD blockade (3.5 μg RGD co-injected), read-out: Uptake Ratio Tumor/Muscle): 60.3 | dose excreted at 0.5 h (urine, 0.037 MBq, 0.5 h post-injection, read-out: Urine, Percent injected dose): 43.1 ± 5.62% | dose excreted at 2 h (urine, 0.037 MBq, 2 h post-injection, read-out: Urine, Percent injected dose (cleared through the urinary system)): 67.8 ± 6.28% | dose excreted at 4 h (urine, 0.037 MBq, 4 h post-injection, read-out: Urine, Percent injected dose): 75.1 ± 3.61% | dose excreted at 24 h (urine, 0.037 MBq, 24 h post-injection, read-out: Urine, Percent injected dose): 88.3 ± 1.64% | dose excreted at 2 h (urine, 2 h post-injection, NDP blockade (10 μg NDP-MSH co-injected), read-out: Urine, Percent injected dose): 76.8 ± 3.01% | dose excreted at 2 h (urine, 2 h post-injection, RGD blockade (3.5 μg RGD co-injected), read-out: Urine, Percent injected dose): 71.8 ± 5.07%
SMILES: CC(C)[C@H](NC(=O)[C@@H]1CCCN1C(=O)[C@H](CCCNC(=N)N)NC(=O)[C@H](CS)NC(=O)[C@H](Cc1c[nH]c2ccccc12)NC(=O)[C@H](CCCNC(=N)N)NC(=O)[C@@H](Cc1ccccc1)NC(=O)[C@H](Cc1c[nH]cn1)NC(=O)[C@H](CCC(=O)O)NC(=O)[C@H](CS)NC(=O)[C@H](CS)NC(=O)[C@H](CCCNC(=N)N)NC(=O)[C@@H]1CC(=O)N[C@@H](CCCNC(=N)N)C(=O)NCC(=O)N[C@@H](CC(=O)O)C(=O)N[C@H](Cc2ccc(O)cc2)C(=O)N1)C(N)=O [^99mTc-RGD-Arg-(Arg^11)CCMSH, metal not drawn] (RGD[dY]DRCCEH[dF]RWCRPV-NH2; lactam N-5)
